Assay results taken from patent publication US7429679B2, “Sulphonic acid salt of sibutramine” (CJ Corporation, priority 2005, dated 2008).
≈ marks a conversion by molar mass, not a printed value. Entries after “also recorded” stand apart in the source; their conditions may differ. Like-named read-outs stand apart in the source and are kept apart here.

How the values were obtained:
Type in all cases: physicochemical
[1] = Evaluation of solubility in distilled water and aqueous solutions having various pH values
[2] = Evaluation of hygroscopicity: water content (K.F.) after exposure to humid conditions at 25° C.; conditions: for change in water content under humid conditions (in words): relative humidities of 10%, 75% and 90%, up to one week or longer
Description: The sulphonic acid salts of sibutramine, prepared in Examples 1 to 5, and sibutramine hydrochloride monohydrate were exposed to humid conditions (10%, 75% and 90% RH) at 25° C. for a period of three days or one week. Then, the water content (K.F. water %) of the samples was measured.

[3] = Evaluation of stability: stringent 60° C. heat treatment, content by HPLC; parameters: content (HPLC) upon 60° C. heat treatment: reference not given here
Description: The sulphonic acid salts of sibutramine, prepared in Examples 1 to 5, and sibutramine hydrochloride monohydrate were exposed to a stringent 60° C. heat treatment.
HPLC was performed under the following conditions.
Wavelength of UV detection: 225 nm
Column: octadecyl silica gel, C18 (4.6×150 mm, 5 μm)
Mobile phase: an aqueous solution of ammonium phosphate monohydride (0.05 M) (adjusted to pH 6 with phosphoric acid): acetonitrile=35:65

[4] = Evaluation of light stability: exposure to fluorescence at 25° C., ICH light stability test chamber, content by HPLC; parameters: content (HPLC) in light stability test: reference not given here
Description: A light stability test was performed as follows. The sulphonic acid salts of sibutramine, prepared in Examples 1 to 5, and sibutramine hydrochloride monohydrate were exposed to fluorescence at 25° C. using a light stability test chamber suitable for the ICH guideline, for storage periods of 1, 2 and 4 weeks.

[5] = distilled water (DW) and buffer solutions at various pH values
[6] = 10% relative humidity, 25° C., 1 week
[7] = 10% relative humidity, 25° C., 3 days
[8] = 75% relative humidity, 25° C., 1 week
[9] = 75% relative humidity, 25° C., 3 days
[10] = 90% relative humidity, 25° C., 1 week
[11] = 90% relative humidity, 25° C., 3 days

## CC(C)CC(N(C)C)C1(c2ccc(Cl)cc2)CCC1 (centres unmarked) [Besylate, sibutramine besylate]
[1]; DW (distilled water)
  solubility: 19.18 mg/mL
[1]; aqueous buffer, distilled water (DW) and buffer solutions at various pH values, read-out: solubility against the solubility sufficient for preparing pharmaceutical formulations such as capsules
  solubility: > 3 mg/mL
[1]; [5]
  solubility compared to sibutramine hydrochloride monohydrate (in words): slightly lower solubility than sibutramine hydrochloride monohydrate
[1]; distilled water (DW) and buffer solutions at various pH values, listed as besylate
  solubility compared to sibutramine hydrochloride monohydrate (in words): slightly low solubility compared to sibutramine hydrochloride monohydrate
[1]; pH 1.2
  solubility: 15.18 mg/mL
[1]; pH 4.0
  solubility: 8.51 mg/mL
[1]; pH 5.3
  solubility: 5.72 mg/mL
[1]; pH 6.8
  solubility: 21.86 mg/mL
[1]; pH 7.4
  solubility: 7.01 mg/mL
[2]; 10% relative humidity, 25° C., 1 week, listed as Bensylate
  water content (K.F. water %): 0.02%
[2]; 10% relative humidity, 25° C., 3 days, listed as Bensylate
  water content (K.F. water %): 0.02%
[2]; 75% relative humidity, 25° C., 1 week, listed as Bensylate
  water content (K.F. water %): 0.05%
[2]; 75% relative humidity, 25° C., 3 days, listed as Bensylate
  water content (K.F. water %): 0.02%
[2]; 90% relative humidity, 25° C., 1 week, listed as Bensylate
  water content (K.F. water %): 0.05%
[2]; 90% relative humidity, 25° C., 3 days, listed as Bensylate
  water content (K.F. water %): 0.05%
[2]; Initial, listed as Bensylate
  water content (K.F. water %): 0.02%
[2]
  change in water content under humid conditions (in words): almost no change in water content
[3]; 60° C., 1 wk
  content (HPLC) upon 60° C. heat treatment: 1.000
[3]; 60° C., 2 wks
  content (HPLC) upon 60° C. heat treatment: 0.999
[3]; 60° C., 4 wks
  content (HPLC) upon 60° C. heat treatment: 1.000
[3]; Initial
  content (HPLC) upon 60° C. heat treatment: 1.000
[4]; Initial
  content (HPLC) in light stability test: 1.000
[4]; fluorescence, 25° C., 1 wk
  content (HPLC) in light stability test: 1.000
[4]; fluorescence, 25° C., 2 wks
  content (HPLC) in light stability test: 0.999
[4]; fluorescence, 25° C., 4 wks
  content (HPLC) in light stability test: 0.999

## CC(C)CC(N(C)C)C1(c2ccc(Cl)cc2)CCC1.CC1(C)C2CCC1(CS(=O)(=O)O)C(=O)C2 (centres unmarked) [Camsylate, sibutramine camsylate]
[1]; DW (distilled water)
  solubility: 23.67 mg/mL
[1]; pH 1.2
  solubility: 16.18 mg/mL
[1]; pH 4.0
  solubility: 16.75 mg/mL
[1]; pH 5.3
  solubility: 7.45 mg/mL
[1]; pH 6.8
  solubility: 29.83 mg/mL
[1]; pH 7.4
  solubility: 13.97 mg/mL
[2]; [6]
  water content (K.F. water %): 0.08%
[2]; [7]
  water content (K.F. water %): 0.09%
[2]; [8]
  water content (K.F. water %): 0.06%
[2]; [9]
  water content (K.F. water %): 0.06%
[2]; [10]
  water content (K.F. water %): 0.12%
[2]; [11]
  water content (K.F. water %): 0.08%
[2]; Initial
  water content (K.F. water %): 0.09%
[2]
  change in water content under humid conditions (in words): almost no change in water content
[3]; 60° C., 1 wk
  content (HPLC) upon 60° C. heat treatment: 1.000
[3]; 60° C., 2 wks
  content (HPLC) upon 60° C. heat treatment: 0.999
[3]; 60° C., 4 wks
  content (HPLC) upon 60° C. heat treatment: 0.999
[3]; Initial
  content (HPLC) upon 60° C. heat treatment: 1.000
[4]; Initial
  content (HPLC) in light stability test: 1.000
[4]; fluorescence, 25° C., 1 wk
  content (HPLC) in light stability test: 0.999
[4]; fluorescence, 25° C., 2 wks
  content (HPLC) in light stability test: 1.000
[4]; fluorescence, 25° C., 4 wks
  content (HPLC) in light stability test: 0.999

## CC(C)CC(N(C)C)C1(c2ccc(Cl)cc2)CCC1 (centres unmarked) [Edisylate, sibutramine edisylate]
[1]; DW (distilled water)
  solubility: 25.98 mg/mL (≈ 92.8 mM)
[1]; [5]
  solubility compared to sibutramine hydrochloride monohydrate (in words): slightly low solubility compared to sibutramine hydrochloride monohydrate; also recorded: slightly lower solubility than sibutramine hydrochloride monohydrate
[1]; pH 1.2
  solubility: 10.57 mg/mL (≈ 37.8 mM)
[1]; pH 4.0
  solubility: 9.78 mg/mL (≈ 34.9 mM)
[1]; pH 5.3
  solubility: 5.68 mg/mL (≈ 20.3 mM)
[1]; pH 6.8
  solubility: 19.44 mg/mL (≈ 69.5 mM)
[1]; pH 7.4
  solubility: 8.04 mg/mL (≈ 28.7 mM)
[2]; [6]
  water content (K.F. water %): 0.05%
[2]; [7]
  water content (K.F. water %): 0.06%
[2]; [8]
  water content (K.F. water %): 0.05%
[2]; [9]
  water content (K.F. water %): 0.04%
[2]; [10]
  water content (K.F. water %): 0.05%
[2]; [11]
  water content (K.F. water %): 0.04%
[2]; Initial
  water content (K.F. water %): 0.05%
[2]
  change in water content under humid conditions (in words): almost no change in water content
[3]; 60° C., 1 wk
  content (HPLC) upon 60° C. heat treatment: 0.999
[3]; 60° C., 2 wks
  content (HPLC) upon 60° C. heat treatment: 1.000
[3]; 60° C., 4 wks
  content (HPLC) upon 60° C. heat treatment: 0.999
[3]; Initial
  content (HPLC) upon 60° C. heat treatment: 1.000
[4]; Initial
  content (HPLC) in light stability test: 1.000
[4]; fluorescence, 25° C., 1 wk
  content (HPLC) in light stability test: 1.000
[4]; fluorescence, 25° C., 2 wks
  content (HPLC) in light stability test: 0.999
[4]; fluorescence, 25° C., 4 wks
  content (HPLC) in light stability test: 1.000

## CC(C)CC(N(C)C)C1(c2ccc(Cl)cc2)CCC1 (centres unmarked) [Esylate hemihydrate, sibutramine esylate hemihydrate]
[1]; DW (distilled water), hemihydrate
  solubility: 84.10 mg/mL
[1]; distilled water (DW) and buffer solutions at various pH values, hemihydrate
  solubility compared to sibutramine hydrochloride monohydrate (in words): excellent solubility compared to sibutramine hydrochloride monohydrate
[1]; distilled water and aqueous solutions of pH 1.2, pH 4.0, pH 5.3, pH 6.8 and pH 7.4
  solubility relative to sibutramine hydrochloride: two times-higher than the solubility of sibutramine hydrochloride
[1]; pH 1.2, hemihydrate
  solubility: 70.65 mg/mL
[1]; pH 4.0, hemihydrate
  solubility: 26.42 mg/mL
[1]; pH 5.3, hemihydrate
  solubility: 19.53 mg/mL
[1]; pH 6.8, hemihydrate
  solubility: 69.42 mg/mL
[1]; pH 7.4, hemihydrate
  solubility: 27.61 mg/mL
[2]; 10% relative humidity, 25° C., 1 week, hemihydrate
  water content (K.F. water %): 2.37%
[2]; 10% relative humidity, 25° C., 3 days, hemihydrate
  water content (K.F. water %): 2.35%
[2]; 75% relative humidity, 25° C., 1 week, hemihydrate
  water content (K.F. water %): 2.35%
[2]; 75% relative humidity, 25° C., 3 days, hemihydrate
  water content (K.F. water %): 2.29%
[2]; 90% relative humidity, 25° C., 1 week, hemihydrate
  water content (K.F. water %): 2.40%
[2]; 90% relative humidity, 25° C., 3 days, hemihydrate
  water content (K.F. water %): 2.44%
[2]; Initial, hemihydrate
  water content (K.F. water %): 2.37%
[2]
  change in water content under humid conditions (in words): almost no change in water content
[3]; 60° C., 1 wk, hemihydrate
  content (HPLC) upon 60° C. heat treatment: 1.000
[3]; 60° C., 2 wks, hemihydrate
  content (HPLC) upon 60° C. heat treatment: 0.999
[3]; 60° C., 4 wks, hemihydrate
  content (HPLC) upon 60° C. heat treatment: 0.999
[4]; fluorescence, 25° C., 1 wk, hemihydrate
  content (HPLC) in light stability test: 0.999
[4]; fluorescence, 25° C., 2 wks, hemihydrate
  content (HPLC) in light stability test: 1.000
[4]; fluorescence, 25° C., 4 wks, hemihydrate
  content (HPLC) in light stability test: 0.999
